On the set-up of data set [1]: species or system male Sprague Dawley rats. Conditions: rat, in vivo, 0.25 mg/kg, 300 min. The text has this: (§1) Two animal species were used, i.e., rats and rabbits.
(§2) Monosialotetrahexosylganglioside GM1 labeled on the sphingosine moiety according to the method of Tettamanti et al. (in "Gangliosides in Neurological and Neuromuscular Function, Development and Repair" Eds. M. M. Rapport, A. Gorio, Raven Press. (N.Y.) 1981, p. 225-240) was used as a representative ganglioside molecule.
(§3) The ganglioside mixture used was similar to the natural mixture that is obtained by extraction and purification from bovine cerebral cortex. The mixture was made up by compounding the single ganglioside fractions in the following percent proportions:
(§4) The monosialotetrahexosylganglioside GM1 contained a ^3 H-label on sphingosine as specified under item (a) as a tracer for the mixture.
(§5) Labeled inner ester derivative of monosialoganglioside was obtained from monosialoganglioside labeled on the sphingosine moiety according to the method cited under item (a). The inner esterification procedure according to the method described in applicant's co-pending U.S. application Ser. No. 290,106, filed on Aug. […]
After treatment the animals were housed in metabolic cages. […] The total radioactivity of the samples was counted by means of a Tricarb scintillator (Packard).
(§6) However, increased pulmonary absorption of the compounds after nebulization of the aqueous solutions was recorded (See Table 2).

Details of data set [2]: species or system male Sprague Dawley rats. As to conditions: rat, in vivo, 0.25 mg/kg, 300 min.
From the text: as §1, §2, §3, §4
(§7) Labeled inner ester derivative of monosialoganglioside was obtained from monosialoganglioside labeled on the sphingosine moiety according to the method cited under item (a). The inner esterification procedure according to the method described in applicant's co-pending U.S. application Ser. No. 290,106, filed on Aug. 4, 1981, was used for this labeled ganglioside to obtain the labeled inner ester derivative. […]
(§8) After treatment the animals were housed in metabolic cages. […] The total radioactivity of the samples was counted by means of a Tricarb scintillator (Packard). […]
This is another data set of the same source.

On the set-up of data set [3]: species or system male Sprague Dawley rats. As to conditions: rat, in vivo, 0.25 mg/kg, 300 min.
From the text: as §1, §2, §3, §4, §7, §8
This is another data set of the same source.

On the set-up of data set [4]: species or system male New Zealand rabbits. As to conditions: rabbit, in vivo, 0.25 mg/kg, 300 min.
From the text: as §1, §2, §3, §4, §5, §8, §6

Details of data set [5]: species or system male New Zealand rabbits. Conditions: rabbit, in vivo, 0.25 mg/kg, 300 min.
From the text: as §1, §2, §3, §4, §7, §8
The source holds these as a separate data set.

On the set-up of data set [6]: species or system male New Zealand rabbits. Conditions: rabbit, in vivo, 0.25 mg/kg, 300 min.
From the text: as §1, §2, §3, §4, §7, §8
This is another data set of the same source.

Where two headings read alike, the source gives them in different places.

For `CCCCCCCCCCCCC/C=C/[C@@H](O)[C@H](CO[C@@H]1O[C@H](CO)[C@@H](O[C@@H]2O[C@H](CO)[C@H](O[C@@H]3O[C@H](CO)[C@H](O)[C@H](O[C@@H]4O[C@H](CO)[C@H](O)[C@H](O)[C@H]4O)[C@H]3NC(C)=O)[C@@H]3O[C@@]4(C[C@H](O)[C@@H](NC(C)=O)[C@H]([C@H](O)[C@H](O)CO)O4)C(=O)O[C@@H]23)[C@H](O)[C@H]1O)NC(=O)CCCCCCCCCCCCCCCCC` [Monosialoganglioside inner ester], the “Bioavailability (Intramuscular route = 100)” value in data set [1] turned out to be 35%; in data set [2], 12%; in data set [3] it was 80; in data set [4], 33.5%; in data set [5], 85; in data set [6], 11.5%.
As to “Monosialotetrahexosylganglioside GM1 [Monosialoganglioside]”, the “Bioavailability (Intramuscular route = 100)” value is on record as 34% in data set [1]; 10.5% in data set [2]; 85 in data set [3]; 32% in data set [4]; 87 in data set [5]; 12% in data set [6].

The values above are taken from patent US4639437A, “Kit or device and method for administering gangliosides and derivatives thereof by inhalation and pharmaceutical compositions suitable therefor” (Fidia, S.p.A., priority 1984, dated 1987).
